pEC50, pIC50: −log10 of the molar value. Read-outs that look alike come from different tables or passages of the source.
Legend:
[1] = test system: 4T1 stem cells (CD44v3highALDH1high 4T1 cells); experiment: Tumor cell growth inhibition of sphere-derived cancer stem cells (CellTiter-Glo); type: cell-based, mouse; details: suspension culture, 5 days; read-out: EC50 4T1 stem cells in suspension culture
Experimental: Sphere formation to further increase the fraction of cancer stem cells was induced by suspending CD44v3highALDH1high 4T1 cells in 1:1 Matrigel/basal medium in a total of volume of 100 μl. Samples (5 × 10^4 cells) were then plated around the rims of wells in a 12-well plate and allowed to solidify at 37 °C for 10 min before 1 ml basal medium (with B27 plus 20 ng/mL EGF, 10 ng/mL FGF and 4 μg/mL insulin) was added. Medium was replenished every 3-days. Ten days after plating, spheres (tight, spherical, nonadherent masses >40 μm in diameter) per well were counted, and at least 100 spheres per group were measured. The number of spheres containing CD44v3highALDH1high 4T1 cells in each well and expressed as sphere forming units (SFU) as described previously. The number of SFUs per well was counted in triplicate wells for each condition.
To recover CD44v3highALDH1high 4T1 cells from the spheres, Matrigel–containing wells were treated with 1 mg/ml Dispase solution (Gibco). Spheres were then digested with trypsin and 0.05 % EDTA. CD44v3highALDH1high cells dissociated from spheres were counted by hemacytometer and replated to generate spheres of next generation. Serial passage of individual spheres was regularly performed in order to verify self-renewal capability of cells associated the spheres. Measurement of growth for CD44v3highALDH1high cells (dissociated from spheres) was also performed by incubating these cells in serum-free RPMI-1640 medium for 3-weeks using MTT-based growth assay as described previously.
To analyze tumor cell growth properties, sphere-derived CD44v3highALDH1high 4T1 cells were incubated in basal medium (with B27 plus 20 ng/mL EGF, 10 ng/mL FGF and 4 μg/mL insulin). Medium was replenished every 3-days. Twenty-one days after plating, the number of cell growth was then counted under a microscope at low magnification. In some cases, these sphere-derived CD44v3highALDH1high 4T1 cells were also treated with DT compounds for 5 days or doxorubicin (range 1 μM to 1 mM) for 5 days at 37 °C. The CellTiter-Glo® Luminescent Cell Viability Assay (Promega, Madison, WI) was utilized to determine the number of metabolically active cells based on the quantification of adenosine triphosphate (ATP). The percentage of […] relative to untreated controls was plotted as a linear function of drug concentration. The 50 % inhibitory concentration (IC50) was identified as the concentration of drug required to achieve a 50 % growth inhibition relative to untreated controls.
A stem cell–enriched cell population was prepared as described previously by sorting for ALDH1 and CD44v3. The identification of aldehyde dehydrogenase1 (ALDH1) activity from tumor–derived 4T1 Luc2-GFP cells (PerkinElmer, Waltham, MA) was conducted using the ALDEFLUOR kit (StemCell Technologies, Durham, NC). Specifically, tumor cells were suspended in ALDEFLUOR assay buffer containing ALDH1 substrate (BAAA, […] per 1 × 10^6 cells) and incubated for 30 min at 37 °C. As a negative control, 4T1 cells were treated with a specific ALDH1 inhibitor, […] diethylaminobenzaldehyde (DEAB). Next, for labeling cell surface marker, tumor–derived 4T1 cells were suspended in 100 μl ALDEFLUOR buffer followed by incubating with 20 μl allophycocyanin (APC)-labeled anti-CD44v3 antibody (recognizing the v3-specific domain of CD44) or APC-labeled normal mouse IgG (as a control) (BD Bioscience, San Jose, CA) for 15 min at 4 °C. For FACS sorting, tumor cells were incubated in PBS buffer followed by FACS (BD FACS Aria llu, BD Bioscience, San Jose, CA) sorting using dual-wavelength analysis as described previously. The parental cell line contained 2 % CD44v3highALDH1high cells but the final sorted cells contained 18 % CD44v3highALDH1high cells, a 9-fold enrichment.

[2] = test system: cancer cells on SISgel or plastic; experiment: Activity of leads and analogs on cancer cells grown on plastic vs SISgel (cell line not stated); type: cell-based
Experimental: The NCI library is no longer available in the form used here, but how it was constructed is described (http://dtp.nci.nih.gov/branches/dscb/diversity_explanation.html). The ChemBridge library is a subset (Set Code NM1024) of the full 50,000 compound library (http://www.chembridge.com/screening_libraries/diversity_libraries/). Compounds were diluted to 100 μM before use. SISgel was prepared as described previously from powdered porcine small intestine submucosa obtained from Cook Biotech (W. Lafayette, IN). It is a natural product that is used extensively in tissue engineering as a bioscaffold. J82 bladder cancer cells and other cell lines were obtained from the ATCC (Bethesda, MD). […] Efficacy in vitro was assessed by plating 30,000 cells in 50 μL of high glucose DMEM with penicillin-streptomycin and 10 % fetal calf serum on SISgel in a 96-well plate containing 50 μL of gelled SISgel per well. Cells were allowed to attach and assume the SISgel phenotype for 48 h. A matching plate without SISgel was prepared 24 h later by pipetting 3,000 cells in 100 μL of high glucose DMEM with penicillin-streptomycin and 10 % fetal calf serum into each well of 96 well plate. The cells were allowed to attach and grow for 24 h. […] The cells were exposed to drug in fresh medium for 48 h, at which time the cell number was determined using the CFDA-AM cellular esterase proliferation assay (cat. #C1354, Life Technologies). For screening the results are reported as the ratio of cell count of cells on the plastic surface to the cell count on SISgel. An initial difference of 1.5 fold identified potential hits. All potential hits were confirmed in triplicate. […] Data were analyzed using nonlinear regression to a sigmoid curve with Prism 4 (GraphPad Software, Inc., LaJolla, CA). […]

MDA-MB-435 cells = experiment: Proliferation (CFDA-AM esterase assay) of cells grown on SISgel, plastic or Matrigel, 48 h drug exposure; type: cell-based; details: for pEC50: Homo sapiens; for SI (EC50-P/EC50-S): ratio of EC50 on plastic versus SISgel
Description: The libraries were obtained from the NCI (Diversity Library I) comprised of 2,918 compounds and a 10,000 compound diversity library from ChemBridge, Inc. (DiverSet-EXP). The NCI library is no longer available in the form used here, but how it was constructed is described (http://dtp.nci.nih.gov/branches/dscb/diversity_explanation.html). The ChemBridge library is a subset (Set Code NM1024) of the full 50,000 compound library (http://www.chembridge.com/screening_libraries/diversity_libraries/). Compounds were diluted to 100 μM before use. SISgel was prepared as described previously from powdered porcine small intestine submucosa obtained from Cook Biotech (W. Lafayette, IN). It is a natural product that is used extensively in tissue engineering as a bioscaffold. J82 bladder cancer cells and other cell lines were obtained from the ATCC (Bethesda, MD). The basic principle is that cells grown on any ECM are, in general, expected to show higher resistance to anticancer compounds than when grown on plastic. Therefore, compounds that show a higher activity toward cancer cells on a normal ECM than on a plastic surface would be candidates to target suppressed, micrometastatic cells. Efficacy in vitro was assessed by plating 30,000 cells in 50 μL of high glucose DMEM with penicillin-streptomycin and 10 % fetal calf serum on SISgel in a 96-well plate containing 50 μL of gelled SISgel per well. Cells were allowed to attach and assume the SISgel phenotype for 48 h. A matching plate without SISgel was prepared 24 h later by pipetting 3,000 cells in 100 μL of high glucose DMEM with penicillin-streptomycin and 10 % fetal calf serum into each well of 96 well plate. The cells were allowed to attach and grow for 24 h. These numbers of cells gave approximately equal replication rates at the time drug was added for cells grown on the plastic surface or SISgel as determined by the fraction of S-phase cells identified by flow cytometry. The cells were exposed to drug in fresh medium for 48 h, at which time the cell number was determined using the CFDA-AM cellular esterase proliferation assay (cat. #C1354, Life Technologies). For screening the results are reported as the ratio of cell count of cells on the plastic surface to the cell count on SISgel. An initial difference of 1.5 fold identified potential hits. All potential hits were confirmed in triplicate. Those compounds that replicated were confirmed by a full dose–response study yielding an EC50 using five wells per drug concentration. Data were analyzed using nonlinear regression to a sigmoid curve with Prism 4 (GraphPad Software, Inc., LaJolla, CA). Potential hits that were confirmed by dose–response using J82 were also tested with MDA-MB-435 breast cancer, PC-3 metastatic prostate cancer, Capan1 pancreatic cancer and the J82 bladder cancer cell lines.

mice = experiment: Toxicity / maximum tolerated dose in mice; details: mice
in vivo = details: mouse
[3] = MDA-MB-435 cells on SISgel, read-out: EC50-S
[4] = MDA-MB-435 cells on plastic, read-out: EC50-P

| pEC50 [1] | pIC50 ([2]; cells on SISgel, read-out: IC50-S) | pIC50 ([2]; cells on plastic, read-out: IC50-p) | Compound | SR ([2]; ratio IC50-p/IC50-S) | pEC50 (MDA-MB-435 cells; [3]) | pEC50 (MDA-MB-435 cells; [4]) | SI (EC50-P/EC50-S) (MDA-MB-435 cells) | doses at which highly toxic to mice (mice) | toxicity in mice (mice) | MTD (in vivo) [mg/kg] |
| --- | --- | --- | --- | --- | --- | --- | --- | --- | --- | --- |
| 3.40 | 2.92 | 3.18 | O=S(=O)([O-])c1ccc(N=Nc2ccc(O)c3ccccc23)cc1.[Na+] [Orange 1] | 0.55 | – | – | – | – | – | – |
| – | – | – | COc1ccc(CC(=O)Oc2ccc3c(c2)C(C)=CC(C)(C)N3)cc1 [DT350, 2,2,4-trimethyl-1,2-dihydro-6-quinolinyl (4-methoxyphenyl)-acetate] | – | 3.57 | 2.74 | 6.8 | less than 10 mg/kg | dose-limiting toxicity | < 10 |
| – | – | – | COc1ccc(C2C3=C(CCCC3=O)NC3=C2C(=O)c2ccccc23)c(OC)c1OC (stereo not shown) [DT340, 10-(2,3,4-trimethoxyphenyl)-6,7,8,10-tetrahydro-5H-indeno[1,2-b]quinoline-9,11-dione] | – | 3.93 | 3.66 | 1.9 | less than 10 mg/kg | dose-limiting toxicity | < 10 |

— article PMC4434572, “Identification of novel drugs to target dormant micrometastases” (BMC Cancer, 2015)
